The Ki is the dissociation constant of the complex between target and ligand, obtained from inhibition or displacement. By ED50 is commonly meant the midpoint of the dose-response relation. Lower therefore signals greater potency.

The values that follow come from patent US4806547A, “Isoquinoline derivatives, analgesic compounds thereof and method of treating pain” (Dr. Lo. Zambeletti SPA, priority 1986, dated 1989).

SMILES strings stand for the structures. Counter-ions that a name gives are not always drawn. Like-named read-outs stand apart in the source and are kept apart here.

Experiment [1] deals with μ opioid receptor (μ sites) (Cavia porcellus, UniProt A0ACM8Q262). The experiment can be described thus: Receptor binding to μ sites (3H-DAGO). How it is done: Radio receptor binding to μ and K sites is performed on fresh guinea pig brain homogenate prepared according to Kosterlitz.
Sequence of μ opioid receptor (μ sites) (A0ACM8Q262 1-400): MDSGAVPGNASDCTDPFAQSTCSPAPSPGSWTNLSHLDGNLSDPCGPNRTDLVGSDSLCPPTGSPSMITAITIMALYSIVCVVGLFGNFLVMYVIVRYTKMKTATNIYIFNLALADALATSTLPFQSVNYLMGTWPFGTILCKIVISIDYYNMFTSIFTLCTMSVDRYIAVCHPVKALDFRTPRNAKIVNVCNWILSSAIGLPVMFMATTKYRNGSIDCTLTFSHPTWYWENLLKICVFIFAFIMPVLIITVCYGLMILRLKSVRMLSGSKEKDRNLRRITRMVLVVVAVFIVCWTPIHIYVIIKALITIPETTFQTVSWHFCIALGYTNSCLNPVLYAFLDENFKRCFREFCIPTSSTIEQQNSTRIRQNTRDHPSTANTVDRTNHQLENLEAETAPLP
(§1) Whole brain without cerebellum is homogenized in 50 mM, Tris-buffer (pH 7.4 at 0° C.) and centrifuged at 49,000×g×10 min.
(§2) The pellet is then resuspended in the same buffer, incubated at 37° C. for 45 min. and centrifuged again.
(§3) 1.9 ml of the final homogenate (1:100 in Tris-pH 7.4, 0° C.) is used for the binding assay.
^3 H[D--Ala^2, MePhe^4, Gly--ol^5 ]
The filters are then dryed, solubilized in Filtercount and the radioactivity monitored. Non specific binding is determined in the presence of 10^-6 M Naloxone.
(§4) A concentration of radioligand near KD is used in the binding assays evaluating our compounds.

A further experiment deals with mice. Put plainly: Mouse Tail-flick test (analgesic activity). Format: in vivo, mouse (male Charles River). Conditions: 30 min after dosing; for ED50: Mus musculus, sc, 0.5 h, s.c., mice doubling the initial reaction time. The method, then:
Mouse Tail-flick test (Modified from the procedure published by D'Amour et al., J. Pharm. Exptl. Ther.72, 74/1941).
Male Charles River mice, average weight 26 g, are used. Selection is carried out before beginning of experiments: only mice whose reaction time is less than 8 sec are used. They are randomly distributed into groups of 10 and dosed with compounds under test, with positive and negative controls being included.
Compounds under test are administered subcutaneously in isotonic saline in a volume of 20 ml. Kg^-1. 30 min later mice are placed again under heat source (Socrel apparatus) and reaction time is recorded.
The analgesic activity of the test compound is expressed as the percent number of mice doubling the initial time within a group. [formula]
In general terms: In hot-plate and tail-flick tests a longer latency is read as antinociception.

The target in experiment [2] is T1, K (Kappa) opioid receptor (K sites) (Cavia porcellus, UniProt P41144).
T1 construct: fresh guinea pig brain homogenate; from tissue; host or cells: guinea pig whole brain without cerebellum, homogenate
T1 sequence (P41144 whole entry): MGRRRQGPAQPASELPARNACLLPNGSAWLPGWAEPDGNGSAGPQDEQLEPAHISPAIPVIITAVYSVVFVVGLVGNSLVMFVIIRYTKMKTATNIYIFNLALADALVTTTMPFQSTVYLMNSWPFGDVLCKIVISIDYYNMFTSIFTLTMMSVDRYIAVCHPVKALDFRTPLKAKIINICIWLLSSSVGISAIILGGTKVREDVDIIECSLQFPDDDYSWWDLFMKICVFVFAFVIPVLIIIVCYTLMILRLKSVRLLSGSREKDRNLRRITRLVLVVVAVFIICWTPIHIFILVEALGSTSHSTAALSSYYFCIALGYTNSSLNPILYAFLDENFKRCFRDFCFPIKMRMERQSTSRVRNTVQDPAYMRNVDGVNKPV
The experiment can be described thus: Receptor binding to K sites (tritiated Ethylketocyclazocine). Further details: species or system guinea pig. The method, then: Radio receptor binding to μ and K sites is performed on fresh guinea pig brain homogenate prepared according to Kosterlitz. (1981).
as §1, §2, §3
Binding to K sites (Magnan J., 1982)
The binding of tritiated Ethylketocyclazocine to brain homogenate is measured in the presence of 100 nanomolar D--Ala--D--LeuEnkephalin (DADLE) and 100 nanomolar DAGO, added to saturate the δ and μ opioid receptors respectively.
Final homogenate with solutions of the cold ligand and of the labelled ligand is incubated for 40 min. at 25° C., filtered through Whatman GF/C glass filter discs and washed.
The radioactivity bound to the filters is counted by liquid scintillation spectrophotometry.
MR 2266.500 nM is utilized to determine the saturable binding.
For the calculation of the kinetic parameters of the binding of labelled and unlabelled ligands, the equilibrium dissociation constant (KD), the inhibition constant (Ki) and the maximum number of binding sites (B max) are determined from saturation curves and competition experiments (Hill 1910; Scatchard 1949; Cheng and Prusoff 1973); Gillan et al. 1980).
as §4

[3] abbreviates: guinea pig brain homogenate, 25° C., 40 min, read-out: RECEPTOR BINDING Ki μ.
The mark [4] stands for this setting: read-out: RECEPTOR BINDING Ki K, guinea pig brain homogenate, tritiated Ethylketocyclazocine with 100 nM DADLE and 100 nM DAGO, 25° C., 40 min.
Where [5] appears, read: read-out: RECEPTOR BINDING Ki μ, guinea pig brain homogenate, 25° C., 40 min.

With `CN(C)CC1c2ccccc2CCN1C(=O)Cc1ccc(Br)cc1` (stereo not drawn) [Example 4, 2-(4-bromophenylacetyl)-1-dimethylaminomethyl-1,2,3,4-tetrahydroisoquinoline hydrochloride], the Ki in experiment [1] (setting [3]) was 597 nM; in experiment [2], 3.19 nM. The ED50 in the experiment on mice is 0.25 mg/kg.

Regarding `CN(C)CC1c2ccccc2CCN1C(=O)Cc1ccccc1[N+](=O)[O-]` (stereo not drawn) [Example 6, 1-dimethylaminomethyl-2-(2-nitrophenylacetyl)-1,2,3,4-tetrahydroisoquinoline hydrochloride hemihydrate], the Ki in experiment [1] (setting [3]) is > 10000 nM; in experiment [2] (setting [4]), 30.6 nM.

As for `O=C(Cc1ccc([N+](=O)[O-])cc1)N1CCc2ccccc2C1CN1CCCC1` (stereo not drawn) [Example 11, 1-(1-pyrrolidinylmethyl)-2-(4-nitrophenylacetyl)-1,2,3,4-tetrahydroisoquinoline hydrochloride hemihydrate], the Ki amounted to 62 nM in experiment [1] (setting [5]) and 0.64 nM in experiment [2] (setting [4]). Also, in the experiment with mice, the 50% effect level (ED50) was put at a dose of 0.016 mg/kg.

Regarding `O=C(Cc1ccccc1[N+](=O)[O-])N1CCc2ccccc2C1CN1CCCC1` (stereo not drawn) [Example 13, 1-(1-pyrrolidinylmethyl)-2-(2-nitrophenylacetyl)-1,2,3,4-tetrahydroisoquinoline hydrochloride hemihydrate], the Ki amounted to 1850 nM in experiment [1] (setting [3]) and 7.94 nM in experiment [2] (setting [4]).

For `O=C(Cc1ccc(Br)cc1)N1CCc2ccccc2C1CN1CCCC1` (stereo not drawn) [Example 10, 1-(1-pyrrolidinylmethyl)-2-(4-bromophenylacetyl)-1,2,3,4-tetrahydroisoquinoline hydrochloride], the Ki came out at 50 nM in experiment [1] (setting [5]) and 0.57 nM in experiment [2]. For the same compound, the ED50 with mice was 0.031 mg/kg.

For `CN(C)CC1c2ccccc2CCN1C(=O)Cc1ccc([N+](=O)[O-])cc1` (stereo not drawn) [Example 5, 1-dimethylaminomethyl-2-(nitrophenylacetyl)-1,2,3,4-tetrahydroisoquinoline hydrochloride hemihydrate], the Ki in experiment [1] (setting [3]) was 655 nM; in experiment [2] (setting [4]) it was 5.72 nM. Also, the ED50 with mice was found to be 0.23 mg/kg.

`O=C(Cc1ccc(C(F)(F)F)cc1)N1CCc2ccccc2C1CN1CCCC1` (stereo not drawn) [Example 14, 1-(1-pyrrolidinylmethyl)-2-(4-trifluoromethylacetyl)-1,2,3,4-tetrahydroisoquinoline hydrochloride] returned an ED50 in the experiment on mice of 0.33 mg/kg.

`O=C(Cc1ccc(Cl)c(Cl)c1)N1CCc2ccccc2C1CN1CCCC1` (stereo not drawn) [Example 7, 1-[1-pyrrolidinylmethyl)-2-(3,4-dichlorophenylacetyl)-1,2,3,4-tetrahydroisoquinoline hydrochloride] returned an ED50 in the experiment on mice of 0.016 mg/kg.

On to `N#Cc1ccc(CC(=O)N2CCc3ccccc3C2CN2CCCC2)cc1` (stereo not drawn) [Example 15, 1-(1-pyrrolidinylmethyl)-2-(4-cyanophenylacetyl)-1,2,3,4-tetrahydroisoquinoline hydrochloride sesquihydrate], for which, in the experiment on mice (at 1 mg/kg s.c.), the “MOUSE TAIL FLICK % protection” value is given as 70%.

`O=C(Cc1ccc(Cl)c(Cl)c1)N1CCc2ccccc2C1CN1CCCC1` (single isomer, unassigned) [Example 9, (-)-1-[1-pyrrolidinylmethyl)-2-(3,4-dichlorophenylacetyl)-1,2,4-tetrahydroisoquinoline (-)-tartrate] registered an ED50 with mice of 0.009 mg/kg.

With `O=C(Cc1cccc([N+](=O)[O-])c1)N1CCc2ccccc2C1CN1CCCC1` (stereo not drawn) [Example 12, 1-(1-pyrrolidinylmethyl)-2-(3-nitrophenylacetyl)-1,2,3,4-tetrahydroisoquinoline hydrochloride hydrate], the ED50 in the experiment on mice came out at 0.23 mg/kg.

As for `CN(C)CC1c2ccccc2CCN1C(=O)Cc1ccc(Cl)c(Cl)c1` (stereo not drawn) [Example 1, 1-dimethylaminomethyl-2-(3,4-dichlorophenyl)-acetyl-1,2,3,4-tetrahydroisoquinoline hydrochloride], the Ki in experiment [1] (setting [5]) came to 415 nM; in experiment [2] (guinea pig brain homogenate, tritiated Ethylketocyclazocine with 100 nM DADLE and 100 nM DAGO, 25° C., 40 min, read-out: RECEPTOR BINDING Ki K), 1.59 nM. The ED50 in the experiment with mice worked out at 0.041 mg/kg.

Take `CN(C)CC1c2ccccc2CCN1C(=O)Cc1ccc(Cl)c(Cl)c1` (single isomer, unassigned) [Example 3, hemihydrate]: the Ki in experiment [1] (setting [5]) turned out to be 286 nM; in experiment [2], 2.37 nM. The ED50 in the experiment on mice came out at 0.032 mg/kg.
